Several values for one entry are separate records, joined by “and”; a condition that tells them apart may be missing. Identical values can stand only once.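 How tested: cells in 96-well plates exposed to compound for 48 hours at five concentrations. The concentration for 50% growth inhibition is given as GI50. TGI: concentration producing complete growth inhibition.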

Test systems include MDA-MB-231 breast; UO-31 renal; IGROV1 ovarian; UACC-257 melanoma; OVCAR-4 ovarian; SNB-19 CNS; HCT-15 colon; SN12C renal; A549 NSCLC; LOX IMVI melanoma.
Common to all, as to test: growth of human tumour cells (NCI), 48 h

As to `CCC/C(=N\NC(=S)N1CC2CCC(CC2)C1)c1ccccn1`, the TGI with MDA-MB-231 breast was 2.75 µM; with UO-31 renal it was 4.26 µM and 1.79 µM; with IGROV1 ovarian, 1.4 µM and 2.21 µM; in the test with UACC-257 melanoma it was 0.197 µM and 1.35 µM; with OVCAR-4 ovarian, 0.897 µM and 0.702 µM; in the test on SNB-19 CNS, 2.04 µM and 1.92 µM. For the same compound, the TGI is 0.716 µM and 2.91 µM in the test on HCT-15 colon; 4.54 µM and 4.73 µM in the test with SN12C renal; 5.23 µM and 2.01 µM in the test on A549 NSCLC; 4.31 µM and 2.13 µM in the test with LOX IMVI melanoma. The GI50 is 0.124 µM with UO-31 renal; 0.372 µM with IGROV1 ovarian; 0.119 µM in the test with OVCAR-4 ovarian; 0.338 µM with SNB-19 CNS; 0.161 µM in the test with SN12C renal; 0.122 µM with A549 NSCLC. Besides, the GI50 in the test with LOX IMVI melanoma was 0.0199 µM.
For `COc1ccc2c(=O)cc(C(Cl)(Cl)Cl)oc2c1`, the GI50 with MDA-MB-231 breast is 0.333 µM; in the test on UO-31 renal, 0.637 µM; in the test on IGROV1 ovarian, 0.633 µM; in the test on UACC-257 melanoma, 12 µM; in the test on OVCAR-4 ovarian it was 0.423 µM; in the test on SNB-19 CNS, 3.77 µM. For the same compound, the GI50 with HCT-15 colon is 0.24 µM; with SN12C renal, 0.519 µM; in the test on A549 NSCLC, 0.444 µM; in the test on LOX IMVI melanoma, 0.173 µM. For the same compound, the TGI in the test with MDA-MB-231 breast was 14.9 µM; with UO-31 renal, 15.7 µM; in the test with IGROV1 ovarian it was 21.3 µM; in the test with UACC-257 melanoma, 41.6 µM; with OVCAR-4 ovarian it was 30.7 µM; in the test on SNB-19 CNS it was 48.1 µM. The TGI worked out at 14.2 µM in the test with HCT-15 colon, 11.9 µM with SN12C renal, 15.5 µM in the test on A549 NSCLC and 5.03 µM with LOX IMVI melanoma.
Turning to `CCOC(=O)c1cc2c(cc1Cl)SC(N(c1ccc(OC)cc1)S(=O)(=O)c1ccc(Cl)cc1)=NS2(=O)=O`, the GI50 is 47 µM in the test on MDA-MB-231 breast; 32 µM in the test on UO-31 renal; 49.6 µM in the test with IGROV1 ovarian; 26.1 µM with OVCAR-4 ovarian; 36.8 µM with SNB-19 CNS; 32.3 µM in the test with HCT-15 colon. The GI50 was 31.8 µM in the test on SN12C renal, 33.4 µM in the test with A549 NSCLC and 18.7 µM with LOX IMVI melanoma. Further, the TGI in the test on MDA-MB-231 breast, with UO-31 renal, in the test on IGROV1 ovarian, in the test on OVCAR-4 ovarian, with SNB-19 CNS and in the test with HCT-15 colon was over 100 µM in each case. In addition, the TGI is over 100 µM in the test on SN12C renal, over 100 µM with A549 NSCLC and 38.3 µM with LOX IMVI melanoma.
Consider `COc1cc(C(=O)N2CCN(c3ncnc4ccccc34)CC2)c(N)cc1OCc1ccccc1`, for which the GI50 in the test with MDA-MB-231 breast is 13.9 µM; in the test with UO-31 renal, 12 µM; with IGROV1 ovarian, 17.8 µM; with UACC-257 melanoma it was 21.7 µM; in the test with OVCAR-4 ovarian it was 13.2 µM; with SNB-19 CNS, 13.7 µM. The GI50 in the test with HCT-15 colon was 16.7 µM; in the test on SN12C renal, 18.3 µM; in the test with A549 NSCLC, 16.5 µM; in the test on LOX IMVI melanoma, 12.2 µM. For the same compound, the TGI worked out at 35.3 µM in the test with MDA-MB-231 breast; 26.5 µM with UO-31 renal; 41.6 µM with IGROV1 ovarian; 48.5 µM with UACC-257 melanoma; 47 µM with OVCAR-4 ovarian; 29.8 µM in the test with SNB-19 CNS. Further, the TGI was 31 µM with HCT-15 colon, 32.3 µM in the test with SN12C renal, 50.5 µM in the test with A549 NSCLC and 24.6 µM in the test on LOX IMVI melanoma.
Turning to `O=c1[nH]c(=S)[nH]c2c1CN(CCCN1CCOCC1)CN2`, the TGI in the test on MDA-MB-231 breast is 66.4 µM; in the test on UO-31 renal it was over 100 µM; in the test on IGROV1 ovarian it was over 100 µM; in the test on UACC-257 melanoma, over 100 µM; in the test with OVCAR-4 ovarian it was over 100 µM; with SNB-19 CNS, over 100 µM. For the same compound, the TGI with HCT-15 colon was over 100 µM; in the test on SN12C renal, over 100 µM; in the test on A549 NSCLC it was over 100 µM; in the test on LOX IMVI melanoma it was 62.4 µM.
Consider `COc1cc(N(C)C)c(OC)cc1/C=C\c1ccnc2ccccc12`, for which the TGI in the test on MDA-MB-231 breast, in the test with UO-31 renal, in the test on IGROV1 ovarian, in the test on UACC-257 melanoma, with OVCAR-4 ovarian and with SNB-19 CNS was over 10 µM in each case. Further, the TGI in the test on HCT-15 colon, in the test on SN12C renal, in the test on A549 NSCLC and in the test with LOX IMVI melanoma was over 10 µM throughout.
As to `Oc1ccc(-c2nc3ccccc3s2)cc1CN(Cc1ccccn1)Cc1ccccn1`, the GI50 with MDA-MB-231 breast was 1.3 µM; in the test on UO-31 renal, 0.0834 µM; in the test with IGROV1 ovarian it was 1.96 µM; in the test on UACC-257 melanoma it was 3.1 µM; with OVCAR-4 ovarian, 0.787 µM; in the test with SNB-19 CNS, 1.51 µM. In addition, the GI50 in the test with HCT-15 colon was 0.149 µM; in the test with SN12C renal it was 1.7 µM; with A549 NSCLC, 0.833 µM; in the test on LOX IMVI melanoma, 1.21 µM. Further, the TGI was 13.7 µM in the test with MDA-MB-231 breast; 2.49 µM with UO-31 renal; 15.8 µM with IGROV1 ovarian; 13 µM with UACC-257 melanoma; 12.8 µM in the test with OVCAR-4 ovarian; 20.8 µM with SNB-19 CNS. For the same compound, the TGI in the test on HCT-15 colon was found to be 14.3 µM; with SN12C renal, 14.4 µM; with A549 NSCLC, 18.5 µM; in the test with LOX IMVI melanoma, 10.7 µM.
`O=C1C=CC(=Nc2cc(Br)c(O)c(Br)c2)C=C1`: the GI50 with MDA-MB-231 breast is 31.5 µM; with UO-31 renal, 22 µM; in the test with IGROV1 ovarian it was 22.7 µM; in the test with UACC-257 melanoma it was 32.5 µM; in the test on OVCAR-4 ovarian, 43 µM; in the test with SNB-19 CNS it was 44.2 µM. Further, the GI50 in the test on HCT-15 colon was 16.5 µM; in the test with SN12C renal it was 25.6 µM; with A549 NSCLC, 42.6 µM; in the test with LOX IMVI melanoma, 21.6 µM. For the same compound, the TGI with MDA-MB-231 breast was over 100 µM; in the test with UO-31 renal, over 100 µM; in the test on IGROV1 ovarian, 68 µM; in the test with UACC-257 melanoma, over 100 µM; with OVCAR-4 ovarian it was over 100 µM; with SNB-19 CNS, over 100 µM. Besides, the TGI in the test with HCT-15 colon was 43.8 µM; in the test on SN12C renal, 84.1 µM; with A549 NSCLC, over 100 µM; with LOX IMVI melanoma it was 66.6 µM.
